# Results taken from PubChem BioAssay (NCI).
#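 Here, GI50 denotes the concentration required for 50% inhibition of growth. TGI: concentration producing complete growth inhibition.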
# Experiments:
# Assay in all cases: growth of human tumour cells (NCI), 384-well format
# NCI-H460 NSCLC = tested on: NCI-H460 NSCLC
# U251 glioblastoma = tested on: U251 glioblastoma
# RXF 393 renal = tested on: RXF 393 renal
# CAKI-1 renal = tested on: CAKI-1 renal
# SF-539 CNS = tested on: SF-539 CNS
# MALME-3M melanoma = tested on: MALME-3M melanoma
# SNB-19 CNS = tested on: SNB-19 CNS
# SK-MEL-28 melanoma = tested on: SK-MEL-28 melanoma
# SK-OV-3 ovarian = tested on: SK-OV-3 ovarian
# UACC-257 melanoma = tested on: UACC-257 melanoma
# K-562 leukemia = tested on: K-562 leukemia
# COLO 205 colon = tested on: COLO 205 colon
# NCI-H226 lung = tested on: NCI-H226 lung
# UACC-62 melanoma = tested on: UACC-62 melanoma
# MOLT-4 leukemia = tested on: MOLT-4 leukemia
# HCT-116 colon = tested on: HCT-116 colon
# SF-268 CNS = tested on: SF-268 CNS
# MDA-MB-231 breast = tested on: MDA-MB-231 breast
# HCT-15 colon = tested on: HCT-15 colon
# TK-10 renal = tested on: TK-10 renal
# MDA-MB-468 breast = tested on: MDA-MB-468 breast
# MDA-MB-435 melanoma = tested on: MDA-MB-435 melanoma
# NCI-H23 lung = tested on: NCI-H23 lung
# KM12 colon = tested on: KM12 colon
# IGROV1 ovarian = tested on: IGROV1 ovarian
# NCI-H322M lung = tested on: NCI-H322M lung
# M14 melanoma = tested on: M14 melanoma
# SF-295 CNS = tested on: SF-295 CNS
# SK-MEL-5 melanoma = tested on: SK-MEL-5 melanoma
# SNB-75 CNS = tested on: SNB-75 CNS
# T-47D breast = tested on: T-47D breast
# HOP-92 NSCLC = tested on: HOP-92 NSCLC
# HS 578T breast = tested on: HS 578T breast
# NCI-H522 lung = tested on: NCI-H522 lung
# ACHN renal = tested on: ACHN renal
# UO-31 renal = tested on: UO-31 renal
# HOP-62 NSCLC = tested on: HOP-62 NSCLC
# PC-3 prostate = tested on: PC-3 prostate
# SW-620 colon = tested on: SW-620 colon
# SR leukemia = tested on: SR leukemia
# 786-0 renal = tested on: 786-0 renal
# EKVX NSCLC = tested on: EKVX NSCLC
# OVCAR-3 ovarian = tested on: OVCAR-3 ovarian
# OVCAR-4 ovarian = tested on: OVCAR-4 ovarian
# A498 renal = tested on: A498 renal
# HL-60(TB) leukemia = tested on: HL-60(TB) leukemia
# SK-MEL-2 melanoma = tested on: SK-MEL-2 melanoma
# A549 NSCLC = tested on: A549 NSCLC
# OVCAR-5 ovarian = tested on: OVCAR-5 ovarian
# SN12C renal = tested on: SN12C renal
# OVCAR-8 ovarian = tested on: OVCAR-8 ovarian
# DU-145 prostate = tested on: DU-145 prostate
# HT29 colon = tested on: HT29 colon
# BT-549 breast = tested on: BT-549 breast
smiles,measurement,setting,value
Nc1nc(Nc2ccc3c(c2)CC[C@@H](N2CCCC2)CC3)nn1-c1cc2c(nn1)-c1ccccc1CCC2,GI50,NCI-H460 NSCLC,360 nM
same,TGI,NCI-H460 NSCLC,1280 nM
same,GI50,U251 glioblastoma,761 nM
same,TGI,U251 glioblastoma,2020 nM
same,GI50,RXF 393 renal,25.9 nM
same,TGI,RXF 393 renal,545 nM
same,GI50,CAKI-1 renal,493 nM
same,TGI,CAKI-1 renal,1720 nM
same,GI50,SF-539 CNS,244 nM
same,TGI,SF-539 CNS,1110 nM
same,GI50,MALME-3M melanoma,284 nM
same,TGI,MALME-3M melanoma,827 nM
same,GI50,SNB-19 CNS,1590 nM
same,TGI,SNB-19 CNS,2960 nM
same,GI50,SK-MEL-28 melanoma,1400 nM
same,TGI,SK-MEL-28 melanoma,2700 nM
same,GI50,SK-OV-3 ovarian,305 nM
same,TGI,SK-OV-3 ovarian,1240 nM
same,GI50,UACC-257 melanoma,182 nM
same,TGI,UACC-257 melanoma,368 nM
same,GI50,K-562 leukemia,331 nM
same,TGI,K-562 leukemia,1210 nM
same,GI50,COLO 205 colon,1500 nM
same,TGI,COLO 205 colon,2840 nM
same,GI50,NCI-H226 lung,1450 nM
same,TGI,NCI-H226 lung,2770 nM
same,GI50,UACC-62 melanoma,773 nM
same,TGI,UACC-62 melanoma,2020 nM
same,GI50,MOLT-4 leukemia,186 nM
same,TGI,MOLT-4 leukemia,334 nM
same,GI50,HCT-116 colon,478 nM
same,TGI,HCT-116 colon,1730 nM
same,GI50,SF-268 CNS,1180 nM
same,TGI,SF-268 CNS,2410 nM
same,GI50,MDA-MB-231 breast,1630 nM
same,TGI,MDA-MB-231 breast,3 µM
same,GI50,HCT-15 colon,564 nM
same,TGI,HCT-15 colon,1800 nM
same,GI50,TK-10 renal,1010 nM
same,TGI,TK-10 renal,2180 nM
same,GI50,MDA-MB-468 breast,1450 nM
same,TGI,MDA-MB-468 breast,2760 nM
same,GI50,MDA-MB-435 melanoma,1020 nM
same,TGI,MDA-MB-435 melanoma,2190 nM
same,GI50,NCI-H23 lung,1330 nM
same,TGI,NCI-H23 lung,2610 nM
same,GI50,KM12 colon,1070 nM
same,TGI,KM12 colon,2290 nM
same,GI50,IGROV1 ovarian,418 nM
same,TGI,IGROV1 ovarian,1550 nM
same,GI50,NCI-H322M lung,529 nM
same,TGI,NCI-H322M lung,1770 nM
same,GI50,M14 melanoma,451 nM
same,TGI,M14 melanoma,1590 nM
same,GI50,SF-295 CNS,634 nM
same,TGI,SF-295 CNS,1940 nM
same,GI50,SK-MEL-5 melanoma,1060 nM
same,TGI,SK-MEL-5 melanoma,2250 nM
same,GI50,SNB-75 CNS,1140 nM
same,TGI,SNB-75 CNS,2350 nM
same,GI50,T-47D breast,1210 nM
same,TGI,T-47D breast,2450 nM
same,GI50,HOP-92 NSCLC,798 nM
same,TGI,HOP-92 NSCLC,2070 nM
same,GI50,HS 578T breast,262 nM
same,TGI,HS 578T breast,1270 nM
same,GI50,NCI-H522 lung,1270 nM
same,TGI,NCI-H522 lung,2540 nM
same,GI50,ACHN renal,431 nM
same,TGI,ACHN renal,1510 nM
same,GI50,UO-31 renal,1040 nM
same,TGI,UO-31 renal,2220 nM
same,GI50,HOP-62 NSCLC,1020 nM
same,TGI,HOP-62 NSCLC,2190 nM
same,GI50,PC-3 prostate,796 nM
same,TGI,PC-3 prostate,2050 nM
same,GI50,SW-620 colon,1140 nM
same,TGI,SW-620 colon,2370 nM
same,GI50,SR leukemia,186 nM
same,TGI,SR leukemia,328 nM
same,GI50,786-0 renal,456 nM
same,TGI,786-0 renal,1640 nM
same,GI50,EKVX NSCLC,1020 nM
same,TGI,EKVX NSCLC,2190 nM
same,GI50,OVCAR-3 ovarian,1150 nM
same,TGI,OVCAR-3 ovarian,2370 nM
same,GI50,OVCAR-4 ovarian,1480 nM
same,TGI,OVCAR-4 ovarian,2800 nM
same,GI50,A498 renal,327 nM
same,TGI,A498 renal,1190 nM
same,GI50,HL-60(TB) leukemia,1210 nM
same,TGI,HL-60(TB) leukemia,2450 nM
same,GI50,SK-MEL-2 melanoma,415 nM
same,TGI,SK-MEL-2 melanoma,1400 nM
same,GI50,A549 NSCLC,1380 nM
same,TGI,A549 NSCLC,2700 nM
same,GI50,OVCAR-5 ovarian,1630 nM
same,TGI,OVCAR-5 ovarian,3 µM
same,GI50,SN12C renal,346 nM
same,TGI,SN12C renal,1680 nM
same,GI50,OVCAR-8 ovarian,1520 nM
same,TGI,OVCAR-8 ovarian,2860 nM
same,GI50,DU-145 prostate,939 nM
same,TGI,DU-145 prostate,2160 nM
same,GI50,HT29 colon,326 nM
same,TGI,HT29 colon,1080 nM
same,GI50,BT-549 breast,1080 nM
same,TGI,BT-549 breast,2270 nM
